According to ChEMBL document CHEMBL1145658, “Catharanthus alkaloids XXXVII. 16-Epi-Z-isositsirikine, a monomeric indole alkaloid with antineoplastic activity from Catharanthus roseus and Rhazya stricta” (1983):
Converted amounts (≈) assume the structure as drawn.

Experiments:
KB = assay: Cytotoxicity against human KB cells; type: functional; conditions: read-out: ED50 (the source's name)
P388 = assay: In vivo antitumor activity against mouse P388 cells at 2.5 to 10 mg/kg relative to control; type: functional; conditions: dose mg/kg 2.5-10

C/C=C1\CN2CCc3c([nH]c4ccccc34)[C@@H]2C[C@@H]1[C@@H](CO)C(=O)OC
EC50 (KB): 1.2 µg/mL (≈ 3.39 µM) | T/C (P388): >=150%
